Source: US5202348A, “Thiarubrine antifungal agents” (The University of British Columbia, priority 1990, dated 1993)
Converted amounts (≈) assume the structure as drawn. Like-named read-outs stand apart in the source and are kept apart here.

What was measured:
C. albicans [1] = test: Growth inhibition of C. albicans during 24 hours exposure; format: cell-based, Candida albicans; conditions: Candida albicans, 24 hours exposure
Experimental: (§1) Doses inhibiting growth in 50% were estimated by plotting concentration o
(§2) a logarithmic scale and percent of growth inhibition for 24 hours exposur
(§3) on a probability scale.

[2] = Growth inhibition of P815 mastocytoma during 24 hours exposure; format: cell-based, Mouse; conditions: mouse, p815 cells
Experimental: (§4) P815 = Mouse mastocytoma […]
as §2, §3

P815 = test: as above; format: cell-based, Mouse; conditions: Mus musculus, P815, 24 hours exposure
Experimental: as §4, §2, §3

[3] = Growth inhibition of L1210 during 24 hours exposure; format: cell-based, Mouse; conditions: mouse, l1210 cells; Table 2; read-out: Toxicity Index, LC50 L1210 / C. albicans
Experimental: (§5) L1210 = Mouse lymphocytic leukemia
as §1, §2, §3

L1210 = test: as above; format: cell-based, Mouse; conditions: Mus musculus, L1210; 24 hours exposure; Table 1; read-out: Concentration causing 50% growth inhibition
Experimental: as §5, §1, §2, §3

[4] = Growth inhibition of 3T3 during 24 hours exposure; format: cell-based, Mouse; conditions: mouse, 3t3 cells; Table 2; read-out: Toxicity Index, LC50 3T3 / LC50 C. albicans
Experimental: (§6) 3T3 = Mouse fibroblasts
as §1, §2, §3

3T3 = test: Growth inhibition of 3T3 during 24 hours exposure; format: cell-based, Mouse; conditions: Mus musculus, NIH3T3; 24 hours exposure; Table 1; read-out: Concentration causing 50% growth inhibition
Experimental: as §6, §1, §2, §3

E. coli [5] = test: Growth inhibition of E. coli during 24 hours exposure; format: cell-based, Escherichia coli; conditions: Escherichia coli; 24 hours exposure; Table 4; read-out: Minimal concentration causing 50% growth inhibition
Experimental: as §1, §2, §3

P. aeruginosa [6] = test: Growth inhibition of P. aeruginosa during 24 hours exposure; format: cell-based, Pseudomonas aeruginosa; conditions: Pseudomonas aeruginosa; 24 hours exposure; Table 4; read-out: Minimal concentration causing 50% growth inhibition
Experimental: as §1, §2, §3

Aspergillus [7] = test: Minimal inhibitory concentration, agar dilution method; format: cell-based; conditions: 21 h
Experimental: (§7) Results were obtained by agar dilution method. Mueller Hinton agar plates (pH - 7.4) with different doses of ThD were inoculated with 10^4 cfu/spot and incubated 21 hours at 34°. MIC is the lowest concentration with no growth.

Klebsiella sp. = test: as above; format: cell-based; conditions: 21 h, No. 31
Experimental: as §7

Aspergillus fumigatus = test: Sensitivity of Aspergillus fumigatus, agar diffusion method; format: cell-based; conditions: disc diameter 6 mm, read-out: Zone of Growth Inhibition
Excerpt: Results were obtained by agar diffusion method. Disc diameter - 6 mm. -* = no zone over disc diameter.

C. albicans [8] = test: LC50 (24 hrs.), doses required to inhibit growth in 50%, different method; format: cell-based, Candida albicans
Excerpt: Doses Required to Inhibit Growth of C. albicans
in 50% During 24 hrs. (ng/ml)

P815 mastocytoma = test: as above; format: cell-based; conditions: Mus musculus, P815, 24 h, read-out: LC50 (24 hrs.), dose required to inhibit growth in 50%
C. albicans [9] = test: Degradation of ThD under exposure to bench cool white light (LC50 on C. albicans); format: cell-based; conditions: Candida albicans
Excerpt: (§8) Data on degradation of Thiarubrine D (ThD) expressed as changes of concentration required to inhibit growth of C. albicans in 50% during 24 hrs. exposure (Lc50 24 hrs.).

C. albicans [10] = test: Temperature and time dependent degradation of ThD in water solution (LC50 on C. albicans); format: cell-based; conditions: Candida albicans
Excerpt: as §8

C. albicans [11] = test: Influence of exposure of ThD for two hrs. to different pH (LC50 on C. albicans); format: cell-based; conditions: Candida albicans, two hrs. in sodium phosphate buffer
Excerpt: as §8

C. albicans [12] = test: Changes in LC50 on addition of fetal bovine serum to Saboraud dextrose medium; format: cell-based; conditions: Candida albicans
Excerpt: as §8

C. albicans [13] = test: Decomposition of ThD in 95% ethanol in -20° C. (LC50 on C. albicans); format: cell-based; conditions: Candida albicans
Excerpt: as §8

C. albicans [14] = test: Doses of ThD required to inhibit different numbers of C. albicans cells; format: cell-based; conditions: Candida albicans, read-out: LC50 (the source's name)
Candida = test: Anti-Candida activity (summary); format: cell-based; conditions: Table 14;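 note: Letter grades where Y means active and y means less active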
Aspergillus [15] = test: Anti-Aspergillus activity (summary); format: cell-based; conditions: Table 14;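 note: Letter grades where Y means active and y means less active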
bacteria = test: Anti-bacterial activity (summary); format: cell-based; conditions: Table 14
C. albicans [16] = test: Growth inhibition of C. albicans during 24 hours exposure; format: cell-based, Candida albicans; conditions: Candida albicans; 24 hours exposure; Table 3; read-out: Minimal concentration causing 100% growth inhibition
E. coli [17] = test: Growth inhibition of E. coli during 24 hours exposure; format: cell-based, Escherichia coli; conditions: Escherichia coli; 24 hours exposure; Table 3; read-out: Minimal concentration causing 100% growth inhibition
P. aeruginosa [18] = test: Growth inhibition of P. aeruginosa during 24 hours exposure; format: cell-based, Pseudomonas aeruginosa; conditions: Pseudomonas aeruginosa, Table 3, read-out: Minimal concentration causing 100% growth inhibition
[19] = Stability / decomposition of thiarubrines; conditions: under light
[20] = Table 1, read-out: Concentration causing 50% growth inhibition
[21] = Table 4, read-out: Minimal concentration causing 50% growth inhibition

In the case of `CC#CC1=CC=C(C#CC#CC2CO2)SS1` (centres unmarked) [Thiarubrine D], the IC50 (C. albicans [1]; [20]) is reported as 0.0006 µg/mL (≈ 0.00246 µM), the IC50 (C. albicans [1]; [21]) is reported as 0.0006 µg/mL (≈ 0.00246 µM) and the selectivity ratio at 24 h ([2]; 50% growth inhibition, Table 4, read-out: Ratio of concentration needed to inhibit growth in 50%, P815 vs C. albicans) is reported as 200. The selectivity ratio at 24 h ([2]; 100% growth inhibition, Table 3, read-out: Ratio of minimal concentration causing 100% growth inhibition, P815 line vs C. albicans) was ~500, the selectivity ratio at 24 h ([2]; Table 2, read-out: Toxicity Index, LC50 P815 / LC50 C. albicans) was 200 and the IC50 (P815; [20]) was 0.12 µg/mL (≈ 0.491 µM). The IC100 (P815; Table 3, read-out: Minimal concentration causing 100% growth inhibition) was 1.25 µg/mL, the IC50 (P815; [21]) was 0.12 µg/mL (≈ 0.491 µM) and the selectivity ratio at 24 h [3] was 78. The IC50 (L1210) was 0.047 µg/mL (≈ 0.192 µM), the selectivity ratio at 24 h [4] was 800 and the IC50 (3T3) was 0.48 µg/mL (≈ 1.96 µM). For the same compound, the IC50 (E. coli [5]) was 0.02 µg/mL (≈ 0.0819 µM), the IC50 (P. aeruginosa [6]) was 0.21 µg/mL (≈ 0.859 µM) and the MIC (Aspergillus [7]; No. 21, strain 05) was 0.032 µg/mL (≈ 0.131 µM). It also gave an MIC (Aspergillus [7]; No. 34, strain F604) of 0.064 µg/mL (≈ 0.262 µM), an MIC (Klebsiella sp.) of 1 µg/mL (≈ 4.09 µM) and a zone of inhibition at 0.01 µg/disc (Aspergillus fumigatus; 10 ng/disc) of 14 mm. It also gave a zone of inhibition at 0.1 µg/disc (Aspergillus fumigatus; 100 ng/disc) of 23 mm, a zone of inhibition at 1 µg/disc (Aspergillus fumigatus; 1,000 ng/disc) of 26 mm and a zone of inhibition at 10 µg/disc (Aspergillus fumigatus; 10,000 ng/disc) of 32 mm. The “Inhibition of growth of Candida albicans” value (C. albicans [8]) was “nanogram/ml range”, the IC50 (C. albicans [8]; Candida albicans, 24 hrs., Table 7, read-out: LC50 (24 hrs.), dose required to inhibit growth in 50%) was 0.007 µg/mL (≈ 0.0286 µM) and the IC50 (P815 mastocytoma) was 0.085 µg/mL (≈ 0.348 µM). The IC50 (C. albicans [9]; 0 mins. exposure to bench cool white light, read-out: LC50 (24 hrs.)) was 0.007 µg/mL (≈ 0.0286 µM), the IC50 (C. albicans [9]; 5 mins. exposure to bench cool white light, read-out: LC50 (24 hrs.)) was 0.012 µg/mL (≈ 0.0491 µM) and the IC50 (C. albicans [9]; 15 mins. exposure to bench cool white light, read-out: LC50 (24 hrs.)) was 0.026 µg/mL (≈ 0.106 µM). It also gave an IC50 (C. albicans [9]; 0.5 hrs. exposure to bench cool white light, read-out: LC50 (24 hrs.)) of 0.14 µg/mL (≈ 0.573 µM), an IC50 (C. albicans [9]; 24 h, read-out: LC50 (24 hrs.), 24 hrs. exposure to bench cool white light) of 5 µg/mL (≈ 20.5 µM) and an IC50 (C. albicans [9]; read-out: LC50 (24 hrs.), 6 hrs. exposure to bench cool white light) of 5 µg/mL (≈ 20.5 µM). It also gave an IC50 (C. albicans [10]; 0 hrs., 37° C., read-out: LC50 24 Hrs.) of 0.007 µg/mL (≈ 0.0286 µM), an IC50 (C. albicans [10]; 0 hrs., room temperature, read-out: LC50 24 Hrs.) of 0.007 µg/mL (≈ 0.0286 µM) and an IC50 (C. albicans [10]; 0.5 hrs., 37° C., read-out: LC50 24 Hrs.) of 0.02 µg/mL (≈ 0.0819 µM). For the same compound, the IC50 (C. albicans [10]; 0.5 hrs., room temperature, read-out: LC50 24 Hrs.) was 0.016 µg/mL (≈ 0.0655 µM), the IC50 (C. albicans [10]; 2 hrs., 37° C., read-out: LC50 24 Hrs.) was 0.033 µg/mL (≈ 0.135 µM) and the IC50 (C. albicans [10]; 2 hrs., room temperature, read-out: LC50 24 Hrs.) was 0.022 µg/mL (≈ 0.09 µM). For the same compound, the IC50 (C. albicans [10]; 6 hrs., 37° C., read-out: LC50 24 Hrs.) was 0.085 µg/mL (≈ 0.348 µM), the IC50 (C. albicans [10]; 6 hrs., room temperature, read-out: LC50 24 Hrs.) was 0.042 µg/mL (≈ 0.172 µM) and the IC50 (C. albicans [10]; 24 h, 37° C.) was 0.21 µg/mL (≈ 0.859 µM). It also gave an IC50 (C. albicans [10]; 24 h, room temperature) of 0.11 µg/mL (≈ 0.45 µM), an IC50 (C. albicans [11]; pH 5) of 0.04 µg/mL (≈ 0.164 µM) and an IC50 (C. albicans [11]; pH 6) of 0.034 µg/mL (≈ 0.139 µM). The IC50 (C. albicans [11]; pH 7) was 0.02 µg/mL (≈ 0.0819 µM), the IC50 (C. albicans [11]; pH 8) was 0.052 µg/mL (≈ 0.213 µM) and the IC50 (C. albicans [12]; SAB) was 0.007 µg/mL (≈ 0.0286 µM). It also gave an IC50 (C. albicans [12]; SAB + 5% FBS) of 0.014 µg/mL, an IC50 (C. albicans [12]; SAB + 10% FBS) of 0.016 µg/mL and an IC50 (C. albicans [13]; 0 h, 0 days) of 0.007 µg/mL (≈ 0.0286 µM). It also gave an IC50 (C. albicans [13]; 504 h, 21 days) of 0.017 µg/mL (≈ 0.0696 µM), an IC50 (C. albicans [14]; cell density 10^4 /ml) of 0.007 µg/mL (≈ 0.0286 µM) and an IC50 (C. albicans [14]; cell density 10^5 /ml) of 0.016 µg/mL (≈ 0.0655 µM). The IC50 (C. albicans [14]; cell density 10^6 /ml) was 0.042 µg/mL (≈ 0.172 µM), the Anti-Candida (Candida) was “Y” and the Anti-Aspergillus (Aspergillus [15]) was “Y”. For the same compound, the Anti-bacterial (bacteria) was “Y”, the MIC (C. albicans [16]) was 0.0024 µg/mL (≈ 0.00982 µM) and the MIC (E. coli [17]) was 0.078 µg/mL (≈ 0.319 µM). The MIC (P. aeruginosa [18]) was 0.625 µg/mL (≈ 2.56 µM) and the Light sensitivity [19] was “light sensitive and breaks down under light to the corresponding thiophene”.
